According to US8486945B2, “Heterocyclic inhibitors of an Hh-signal cascade, medicinal compositions based thereon and methods for treating diseases caused by the aberrant activity of an Hh-signal system” (priority 2007, dated 2013):
Like-named read-outs stand apart in the source and are kept apart here.

Assays:
[1] = Maximum tolerated dose, intraperitoneal once daily for 5 days; details: mouse, in vivo, ip, male SHK mice
Procedure: Maximum tolerated dose of compounds was determined in tests on male mice of SHK line by intraperitoneal once daily introduction of the compounds in doses from 30 to 300 mg/kg during 5 days. 8 Mice were used in each group. Weight of mice and also animals' mortality were registered. […] According to the classification of chemical compounds toxicity the investigated compounds may be referred to low-toxic substances.

[2] = tested on: transcription factor Gli1; assay: Suppression of transcription factor Gli1 induction in Panc1 cell culture; format: cell-based, human; details: 20 mkM, 72 hours, Panc1 cells
Procedure: Examples of suppression of the transcription factor Gli1 induction in human's tumor cell culture Panc1 by compounds of the general formulas I-VIII are presented in FIG. 2. […] This effect could be enhanced at combined action of the tested compound and kinas inhibitor (oncolitic Iressa). For caning out the experiments the tumour cell culture Panc1 was cultivated for 72 hours in the presence of 20 mkM of tested compounds.
Measurements of expression level Gli1 were carried out by determination of HGli mRNA amount according to the method [Lauth M., Bergstrom A., Shimokawa T., Toftgard R. Inhibition of GLI-mediated transcription and tumor cell growth by small-molecule antagonists. PNAS. 2007, 104(20): 8455-8460].

[3] = Pharmacokinetic investigation in mice (PO and IP); format: in vivo, mice of BALB/c line; details: BALB/c, mouse, plasma, read-out: % F (PO/IV)
[4] = Pharmacokinetic investigation in mice (PO and IP); format: in vivo, mice of BALB/c line; details: BALB/c, mouse, plasma; for half-life: read-out: T½
Procedure: Pharmacokinetic investigations were carried out on mice of BALB/c line. All animals were divided into three groups in a random manner: two experimental groups were used for pharmacokinetic analyses at peroral (PO) and intraperitoneal (IP) ways of substance introduction in various doses, and the control group for getting intact blood plasma.
Blood samples were taken by decapitation of animals before introduction of medicament (control samples), and by decapitation in 5, 15, 30, 60, 120 and 240 minutes after introduction of medicament. Three mice were used for each time interval point.
Analysis of samples comprising compounds of the general formulas I-VIII was carried out by Chromato-Mass-Spectrometry method. The data were analysed by means of software package WinNonLin (Pharsight, CIIIA).
Oral bioavailability % F of compounds of the general formulas I-VIII was calculated on the basis of experimental results according to the following equation: % F=[AUC0→t,(PO)/AUC0→t,(IP)]×100%.

[5] = tested on: Hh-signalling cascade; assay: Inhibition of SHh-induced alkaline phosphatase in C3H10T1/2 cells (Hh-signalling cascade inhibition); format: cell-based; details: Mus musculus, C3H 10T1/2, half maximal inhibition of SHh (0.3 μg/ml) stimulation of cell alkaline phosphatase
In short: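 C3H10T1/2 cells preincubated 30 min with compound (screen at 10 μM; IC50 from triplicate dilution series), then stimulated with 0.3 μg/ml recombinant SHh for 3 days at 37 °C. Alkaline phosphatase measured by CSPD luminescence in 0.2% Triton-X100 lysates; IC50 = half-maximal inhibition of SHh-induced activity.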

[6] = tested on: human's pancreatic carcinoma Panc1; assay: Antitumour activity in Panc1 xenograft mice model; format: in vivo, mice Balb-c/nude
Procedure: Example of antitumour activity of compound III-1029 towards human's pancreatic carcinoma model Panc1, implanted to immunodeficient transgenic (naked) mice Balb-c/nude, is presented in FIG. 3. Mice of 8 weeks age which were implanted with pancreatic carcinoma by injection of 4×10^6 tumour cells were used in the experiments. Introduction of tested compound (peroral 50 mg/kg, daily during 14 days) was started in 7 days after transplantation of tumour (an average size of tumour was 30-60 mm^3). As a result of the tests it was shown that under the said way of introduction compound III-1029 suppresses tumour growth on 67% in comparison with the control group (mice with implanted tumour not treated with compound III-1029).
Example of antitumour activity of compounds III-1017 and III-1011 towards human's pancreatic carcinoma Panc1, implanted to immunodeficient transgenic (naked) mice Balb-c/nude, is presented in FIG. 4. Mice of 8 weeks age which were implanted with pancreatic carcinoma by injection of 4×10^7 tumour cells were used in the experiments. Introduction of tested compound (intraperitoneally […], daily during 21 days) was started in 8 days after transplantation of tumour (an average size of tumour is 60-140 mm^3). As a result of the tests it was shown that under the said way of introduction compounds III-1017 and III-1011 suppress tumour growth on 27 and 46% in comparison with the control group (mice with implanted tumour not treated with the tested compounds).

[7] = biological target: T1, Smo receptors (Homo sapiens, UniProt Q99835); assay: Displacement of bodipy-cyclopamine from Smo receptors in Smo-HEK cells; format: binding; details: half-maximal displacement of bodipy-cyclopamine
T1 construct: expressed in transfected cells; host or cells: HEK cells (Smo-HEK)
Procedure: Binding parameters to Smo receptors for some of compounds of the general formulas I-VIII are presented in table 11 as the values of half-maximal displacement of cyclopamine labelled with fluorescent dye (bodipy-cyclopamine). The tests were carried out for Smo-HEK cells, comprising artificially expressed protein Smo.

[8] = intraperitoneally 100 m mg/kg, daily during 21 days

T1 sequence (Q99835 28-787): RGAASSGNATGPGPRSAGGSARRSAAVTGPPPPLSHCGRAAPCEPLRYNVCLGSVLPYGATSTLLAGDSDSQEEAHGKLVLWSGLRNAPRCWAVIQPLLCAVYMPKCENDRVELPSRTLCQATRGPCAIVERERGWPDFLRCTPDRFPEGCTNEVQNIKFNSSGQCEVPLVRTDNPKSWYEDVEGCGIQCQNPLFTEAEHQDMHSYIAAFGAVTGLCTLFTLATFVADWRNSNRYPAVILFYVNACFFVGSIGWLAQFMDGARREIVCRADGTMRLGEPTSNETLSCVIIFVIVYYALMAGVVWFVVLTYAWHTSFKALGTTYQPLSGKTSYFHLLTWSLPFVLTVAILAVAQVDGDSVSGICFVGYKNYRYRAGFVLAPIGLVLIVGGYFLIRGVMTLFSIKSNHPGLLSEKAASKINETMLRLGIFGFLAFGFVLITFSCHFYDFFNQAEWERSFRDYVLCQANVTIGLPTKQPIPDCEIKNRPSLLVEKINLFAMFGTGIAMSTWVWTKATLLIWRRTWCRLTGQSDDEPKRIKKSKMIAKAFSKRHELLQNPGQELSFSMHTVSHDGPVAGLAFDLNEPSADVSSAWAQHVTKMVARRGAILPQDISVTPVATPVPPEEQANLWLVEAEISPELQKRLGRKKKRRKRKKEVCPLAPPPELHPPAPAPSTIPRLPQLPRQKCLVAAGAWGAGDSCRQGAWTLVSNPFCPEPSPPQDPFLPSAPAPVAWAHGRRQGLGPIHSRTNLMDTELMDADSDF

Row | SMILES | MTD at 5 days [1] [mg/kg] | bioavailability [3] [%] | IC50 [5] [nM] | melting point [°C] | other results
1 | COc1cccc(N2CCN(C(=O)Cn3nc(C)c4c(C)n(-c5ccccc5)nc4c3=O)CC2)c1 [I-1001, 2-Phenyl-3,4-dimethyl-6-{2-[4-(3-methoxyphenyl)piperazin-1-yl]-2-oxoethyl}-2,6-dihydro-7H-pyrazolo[3,4-d]pyridazin-7-one] | > 200 | 35 | < 500 |  | Suppression of Gli1 expression (HGli mRNA) [2]: block effectively Hh-signalling cascade; half-life ([4]; PO, 5 mg/Kg): 2.08 h; Cmax ([4]; PO, 20 mg/Kg): 4460 ng/mL
2 | Cc1cccn2cc(-c3ccc(NC(=O)c4ccccc4F)cc3)nc12 [III-1011, 2-Fluoro-N-[4-(8-methylimidazo[1,2-a]pyridin-2-yl)phenyl]benzamide] | > 200 | 64 |  |  | Suppression of tumour growth in comparison with the control group [6, 8]: 46%; Cmax ([4]; IP, 5 mg/Kg): 1040 ng/mL; half-life ([4]; IP, 5 mg/Kg): 0.733 h; Cmax ([4]; PO, 5 mg/Kg): 564 ng/mL; half-life ([4]; PO, 5 mg/Kg): 0.967 h; IC50 [7]: 93 nM
3 | Cc1ccn2cc(-c3cccc(NC(=O)c4sc(-c5ccccc5)nc4C)c3)nc2c1 [III-1017, 4-Methyl-2-phenylthiazol-5-carboxylic acid [3-(7-methylimidazo[1,2-a]pyridin-2-yl)phenyl]amide] | > 200 | 19 | < 500 |  | Suppression of tumour growth in comparison with the control group [6, 8]: 27%; Cmax ([4]; IP, 5 mg/Kg): 357 ng/mL; half-life ([4]; IP, 5 mg/Kg): 1.12 h; Cmax ([4]; PO, 5 mg/Kg): 398 ng/mL; half-life ([4]; PO, 5 mg/Kg): 0.917 h
4 | Cc1cccn2cc(-c3ccc(NC(=O)c4ccccc4Br)cc3)nc12 [III-1029, N-[4-(8-Methylimidazo[1,2-a]pyridin-2-yl)phenyl]-2-bromobenzamide] | > 200 | 75 | < 500 |  | Suppression of Gli1 expression (HGli mRNA) [2]: block effectively Hh-signalling cascade; Suppression of tumour growth in comparison with the control group ([6]; peroral 50 mg/kg, daily during 14 days): 67%; half-life ([4]; PO, dose not given): 0.983 h; IC50 [7]: 259 nM
5 | CN1CCN(C(=O)C2CCN(C(=O)c3cc4sccc4n3Cc3ccc(Cl)cc3)CC2)CC1 [V-1017, [4-(4-Chlorobenzyl)-4H-thieno[3,2-b]pyrrol-5-yl][4-(4-methylpiperazine-1-carbonyl)-piperidin-1-yl]methanone] | > 200 | 63 |  |  | Cmax ([4]; IP, 5 mg/Kg): 289 ng/mL; half-life ([4]; IP, 5 mg/Kg): 1.13 h; Cmax ([4]; PO, 20 mg/Kg): 758 ng/mL; half-life ([4]; PO, 20 mg/Kg): 2.28 h; IC50 [7]: 40 nM
6 | O=C(c1cc2sccc2n1Cc1ccc(Cl)cc1)N1CCC(C(=O)N2CCCCCC2)CC1 [V-1043, 1-[4-(4-Chlorobenzyl)-4H-thieno[3,2-b]pyrrole-5-carbonyl]piperidine-4-carboxylic acid hexamethylene amide] | > 200 | 3 | < 5000 |  | Cmax ([4]; IP, 5 mg/Kg): 167 ng/mL; half-life ([4]; IP, 5 mg/Kg): 1.07 h; Cmax ([4]; PO, 5 mg/Kg): 71 ng/mL; IC50 [7]: 69 nM
7 | CCOc1ccc(NC(=O)c2ccnc(N3CCC(C(=O)NCCCc4ccccc4)CC3)c2)cc1 [VI-1001, 3,4,5,6-Tetrahydro-2H-[1,2]bipyridinyl-4,4′-carboxylic acid 4′-[(4-ethoxyphenyl)amide] 4-[(3-phenylpropyl)amide]] |  |  | < 500 | 203 to 205 | 
8 | CCOc1ccc(NC(=O)c2ccnc(N3CCC(C(=O)Nc4ccc(C)c(C)c4)CC3)c2)cc1 [VI-1002, 3,4,5,6-Tetrahydro-2H-[1,2′]bipyridinyl-4,4′-carboxylic acid 4-[(3,4-dimethylphenyl)amide] 4′-[(4-ethoxyphenyl)amide]] |  |  | < 5000 | 235 to 237 | 
9 | CCOc1ccc(NC(=O)c2ccnc(N3CCC(C(=O)Nc4cc(C)cc(C)c4)CC3)c2)cc1 [VI-1003, 3,4,5,6-Tetrahydro-2H-[1,2′]bipyridinyl-4,4′-carboxylic acid 4-[(3,5-dimethylphenyl)amide] 4′-[(4-ethoxyphenyl)amide]] |  |  | < 5000 | 250 to 252 | 
10 | CCOc1ccc(NC(=O)c2ccnc(N3CCC(C(=O)Nc4cccc(SC)c4)CC3)c2)cc1 [VI-1004] |  |  | < 5000 | 200 to 202 | 
11 | CCOc1ccc(NC(=O)c2ccnc(N3CCC(C(=O)Nc4ccc(C(C)C)cc4)CC3)c2)cc1 [VI-1005, 3,4,5,6-Tetrahydro-2H-[1,2′]bipyridinyl-4,4′-carboxylic acid 4′-[(4-ethoxyphenyl)amide] 4-[(4-isopropylphenyl)amide]] |  |  | < 5000 | 243 to 245 | 
12 | CCOc1ccc(NC(=O)c2ccnc(N3CCC(C(=O)Nc4ccccc4OC)CC3)c2)cc1 [VI-1006, 3,4,5,6-Tetrahydro-2H-[1,2′]bipyridinyl-4,4′-carboxylic acid 4′-[(4-ethoxyphenyl)amide] 4-[(2-methoxyphenyl)amide]] |  |  | < 5000 | 182 to 184 | 
13 | Cc1ccc(S(=O)(=O)N2CCCc3cc(C(=O)Nc4c(C)cc(C)cc4C)ccc32)cc1 [VII-1001, 1-Tosyl-1,2,3,4-tetrahydroquinoline-6-carboxylic acid (2,4,6-mesityl)amide] |  |  | < 500 | 252 to 255 | Suppression of Gli1 expression (HGli mRNA) [2]: block effectively Hh-signalling cascade
14 | CN1CCc2c(sc(NC(=O)C3CCCCC3)c2-c2nc3ccccc3s2)C1.Cl [VIII-1001, Cyclohexanecarboxylic acid (3-benzo[d]thiazol-2-yl-6-methyl-4,5,6,7-tetrahydrothieno[2,3-c]pyridin-2-yl)amide] | > 100 |  | < 500 |  | Cmax ([4]; IP, 100 mg/Kg): 45 ng/mL; half-life ([4]; IP, 100 mg/Kg): 4.9 h
